Test results from patent publication US10517853B2, “Methods for treating epilepsy” (PTC Therapeutics, Inc., priority 2015, dated 2019).

How the values were obtained:
[1] = tested on: SCN1A nonsense mutation W192X (UAG premature stop); test: Luciferase reporter readthrough assay, SCN1A nonsense mutation W192X construct in 293H cells; format: cell-based; settings: 293H cells transfected with construct SCN1A-Trp192x; decreasing concentrations starting at 3 uM; 24 hours; FIG. 4
Source text: (§1) Luciferase reporter constructs were generated to evaluate readthrough activity of compounds at premature stop codons present in SCN1A and CDKL5 mRNA sequences. FIG. 1 is a schematic of the reporter construct used to monitor readthrough activity of SCN1A nonsense mutation W192X (UAG premature stop). FIG. 2 is a schematic of the reporter construct used to monitor readthrough activity of CDKL5 nonsense mutation R59X (UGA premature stop). FIG. 3 is a schematic of the reporter construct used to monitor readthrough activity of CDKL5 nonsense mutation R550X (UGA premature stop). In each of the constructs, luciferase reporter is flanked by a 3XHA epitope tag at the amino-terminus and a FLAG epitope tag at the C-terminus. An intron from the TPI gene was inserted in the luciferase gene. Sequences from SCN1A (see FIG. 1) and CDKL5 (see FIGS. 2 and 3) harboring disease-associated nonsense mutations were introduced in-frame with the reporter sequence such that readthrough at the premature stop codon results in the production of a functional luciferase protein.
(§2) 293H cells were transfected with either construct SCN1A-Trp192x (FIG. 1), construct CDKL5-R59X (FIG. 2), or construct CDKL5-R550X (FIG. 3). […] The ability of ataluren to promote readthrough at the premature stop codon in each of the constructs was measured and reported as the relative light units (y-axis). […]

[2] = tested on: CDKL5 nonsense mutation R59X (UGA premature stop); test: Luciferase reporter readthrough assay, CDKL5 nonsense mutation R59X construct in 293H cells; format: cell-based; settings: 293H cells transfected with construct CDKL5-R59X; decreasing concentrations starting at 3 uM; 24 hours; FIG. 5
Source text: as §1, §2

[3] = tested on: CDKL5 nonsense mutation R550X (UGA premature stop); test: Luciferase reporter readthrough assay, CDKL5 nonsense mutation R550X construct in 293H cells; format: cell-based; settings: 293H cells transfected with construct CDKL5-R550X; decreasing concentrations starting at 3 uM; 24 hours; FIG. 5
Source text: as §1, §2

[4] = biological target: CYP2C9 (Homo sapiens, UniProt P11712); test: CYP2C9 inhibition; format: in vitro ADME
[5] = biological target: T1, CYP2C8 (Homo sapiens, UniProt P10632); test: CYP2C8 inhibition; format: in vitro ADME
T1 sequence (P10632 1-490): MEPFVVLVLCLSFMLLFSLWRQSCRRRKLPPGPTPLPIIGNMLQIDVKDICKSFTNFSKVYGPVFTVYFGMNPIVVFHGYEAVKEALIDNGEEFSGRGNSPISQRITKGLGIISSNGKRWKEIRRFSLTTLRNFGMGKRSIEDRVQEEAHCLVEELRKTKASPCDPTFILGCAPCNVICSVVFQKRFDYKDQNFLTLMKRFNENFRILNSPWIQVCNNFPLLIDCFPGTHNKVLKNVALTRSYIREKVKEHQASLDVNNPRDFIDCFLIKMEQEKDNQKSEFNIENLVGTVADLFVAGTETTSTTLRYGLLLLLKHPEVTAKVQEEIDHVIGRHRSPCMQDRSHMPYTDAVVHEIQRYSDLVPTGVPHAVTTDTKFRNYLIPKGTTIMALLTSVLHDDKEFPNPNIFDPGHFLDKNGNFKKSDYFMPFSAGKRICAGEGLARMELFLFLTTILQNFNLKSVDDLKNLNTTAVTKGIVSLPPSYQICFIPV

CYP2C9, sequence (P11712 whole entry): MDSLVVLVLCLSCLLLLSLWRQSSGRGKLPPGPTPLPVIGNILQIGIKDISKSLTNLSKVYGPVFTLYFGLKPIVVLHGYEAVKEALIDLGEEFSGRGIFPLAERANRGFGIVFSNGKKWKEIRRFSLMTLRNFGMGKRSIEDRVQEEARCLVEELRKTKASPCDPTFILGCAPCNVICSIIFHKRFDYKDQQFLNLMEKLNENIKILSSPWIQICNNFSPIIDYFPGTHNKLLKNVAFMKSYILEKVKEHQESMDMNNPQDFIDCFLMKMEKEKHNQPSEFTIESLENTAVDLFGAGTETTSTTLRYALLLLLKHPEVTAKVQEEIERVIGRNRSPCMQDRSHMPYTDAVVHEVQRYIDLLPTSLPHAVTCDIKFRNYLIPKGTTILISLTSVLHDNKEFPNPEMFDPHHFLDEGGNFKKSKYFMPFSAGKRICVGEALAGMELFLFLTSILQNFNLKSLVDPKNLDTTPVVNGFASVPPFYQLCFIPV

O=C(O)c1cccc(-c2noc(-c3ccccc3F)n2)c1 [ataluren, 3-[5-(2-fluoro-phenyl)-[1,2,4]oxadiazol-3-yl]-benzoic acid]
readthrough at the premature stop codon (luciferase, relative light units; fold increase compared to DMSO) [1]: promotes concentration-dependent readthrough
readthrough at the premature stop codon (luciferase, relative light units; fold increase compared to DMSO) [2]: promotes concentration-dependent readthrough
readthrough at the premature stop codon (luciferase, relative light units; fold increase compared to DMSO) [3]: promotes concentration-dependent readthrough
inhibition of CYP2C9 [4]: weak inhibitor
inhibition of CYP2C8 [5]: weak inhibitor
